In patent publication US20140342065A1 (priority 2012, published 2014):

Columns and labels:
bacteria or yeast = conditions: exposed one day (NaHS 50 mg, gas 40 ppm or saturated water 0.04% 1 ml), then sealed two months at room temperature
Source text: Control counterparts were also kept at room temperature within a closed environment. Then, the plates were removed from these environments, sealed and placed at room temperature for two months.

[1] = tested on: Mollusks, bees, grasshopper, drosophila, butterflies, and flies; conditions: in vivo
Source text: First, it can be used in a closed space for the growth of crop and to protect the crop by its insecticidal, fungicidal, rodenticidal, pediculicidal, and biocidal actions.

[2] = tested on: freshly cut yams, sweet potatoes and potatoes; assay: NaHS solution fumigation of freshly cut yams, sweet potatoes and potatoes
Procedure: (§1) Aqueous NaHS solutions (0.25-3.5 mmol/L) could release H2S gas (10^−12˜10^−10 mol/L). H2S rapidly, reached to the highest levels within several minutes and maintained a constant concentration. […] The NaHS solution was renewed every 48 or 72 hours. The NaHS solution was placed in a sealed container separated by a partition board with pores on it. The fresh cut vegetables including Broccoli, Lettuce, Lotus Root, Yam, Pumpkin, Sweet Potato, Potato, etc, and the fresh cut fruits Apple, Pear, Kiwi Fruit, Tomato, Hami Melon, and Peach were placed above the board, while the NaHS solution was placed under the board. Therefore, the fresh cut vegetables and fruits were fumigated with H2S gas released from NaHS in the solution.
The control freshly cut yams, sweet potatoes and potatoes that were treated with water (0.0 mmol/L NaHS) underwent browning at 10˜12 hours, while the browning time of freshly cut yams, sweet potatoes and potatoes treated with 0.25-1.75 mmol/L NaHS solution was postponed by about 15-20 hours.

[3] = tested on: fruits, vegetables, meat, chicken and salmon; yeast and/or bacteria; assay: Food preservation with 500 mg NaHS in closed container at room temperature (FIG. 10)
Procedure: Representative samples of foods shown include fruits, vegetables, meat, chicken and salmon. […] Foods and fruits were stored in closed containers. The containers were made of aluminum with a plastic lid that snugly fitted onto the container rim. […] Control group (Control) of foods and fruits were stored within the containers. The experimental group (Exp) of foods and fruits were placed in the same type of containers and 500 mg of NaHS was placed in a glass cup which was placed in one corner of the container of the Exp group. The containers were not sealed. Using a H2S gas detector capable of detecting 1 to 500 ppm of H2S, no H2S was detected outside the containers. The amount of gas within the Exp containers varied from 5-40 ppm during the course of exposure. […] Experiments were carried out at room temperature for the durations shown. […] There is small change in color, consistency, and of the same food group and there is no evidence of growth of yeast in the NaHS treated group. Strawberry 80. […] The fruit also lost its consistency and is discolored. […] Raspberry 82. Growth of yeast is seen by day 4 and is pronounced on day 6 (arrow 83) in the control group. The fruit also lost its consistency and is discolored. […] Blackberry 84. Growth of yeast is seen by day 4 which is pronounced by day 6 (arrow 85) in the control group. The fruit also lost its consistency and is discolored. […] Banana 86. Growth of yeast is seen by day 8 (arrow 87) in the control group. The fruit also lost its consistency and is discolored. […] Sprout 88. Growth of yeast and bacteria is seen by day 4 (arrow 89) in the control group. Sprout also lost its consistency and is discolored. […] Leek 90. The vegetable is discolored in the control group by day 3. […] Avocado 91. Avocado was either homogenized (top two rows) or cut into small 1×1 cm pieces (bottom two rows) and stored in the containers. […] Mushroom 92. Mushroom is discolored in the control group. […] Cantaloupe 93. Growth of yeast is seen by day 3 and is severe on day 4 (arrows 94) in the control group. The fruit also lost its consistency and is discolored. […] Red meat 95 (top), Chicken 96 (middle) and Salmon 97 (Bottom). The control container developed a foul smell on day 3 which was pronounced on day 4. Larvae developed on day 3 in the control group and flies were found on day 4 in the control group. […] Agar plate cultures, 98. Samples from each fruit were diluted in phosphate buffered saline, pH 7.4. From each sample, 20 microliters was streaked on agar plates and plates were maintained either at room temperature or at 37° C. Samples from control group yielded bacteria or yeast only from control group. To directly test growth of these bacteria and yeast in presence of NaHS, samples of bacteria and yeast were streaked on agar plates and then stored without or with NaHS. 50 mg of NaHS was placed in an aluminum chamber and these were inserted on both sides of the Exp Petri dishes. Petri dishes were placed at room temperature or at 37° C. Colonies of bacteria and yeast were evident in the control group on day 1 and coalesced by day 3 as shown in the representative cultures 98. […] No growth was found for up to 2 months following initiation of cultures.

freshly cut Kiwi fruits = assay: NaHS solution fumigation of freshly cut Kiwi fruits
Procedure: as §1
The control freshly cut Kiwi fruits that were treated with water (0.0 mmol/L NaHS) lost their color and their edibility completely on day 4, while the shelf life of freshly cut Kiwi fruits treated with 0.25 mmol/L-1.75 mmol/L NaHS solution was prolonged by 2-3 days. […] The control freshly cut Kiwi fruits treated with 0.0 mmol/L NaHS solution underwent rot process in 5 days, and the rot rate reached 100% in 7 days.

SMILES: S [NaHS, sodium hydrosulfide]
- growth of bacteria and yeast on agar plates (bacteria or yeast): no growth was evident
- death of pests [1]: die within seconds
- browning time postponed by ([2]; 0.25-1.75 mmol/L NaHS, control browning at 10˜12 hours): 15 to 20 h
- browning time postponed by ([2]; 1.0-1.5 mmol/L NaHS (most optimal)): 16 to 20 h
- food spoilage and growth of mold and/or bacteria ([3]; 500 mg NaHS, H2S 5-40 ppm in container, room temperature): prevents food spoilage and growth of mold and/or bacteria
- discoloration ([3]; Avocado homogenized or cut pieces, day 3): maintained nearly the same color as that on day 1
- yeast growth, loss of consistency, discoloration ([3]; Banana, day 8): These changes are not seen in the Exp group
- yeast growth, loss of consistency, discoloration ([3]; Blackberry, day 6): These changes are not seen in the Exp group
- yeast growth, loss of consistency, discoloration ([3]; Cantaloupe, day 4): These changes are not seen in the Exp group
- discoloration ([3]; Leek, day 3): These changes are not seen in the Exp group
- discoloration ([3]; Mushroom): These changes are less severe in the Exp group
- yeast growth, loss of consistency, discoloration ([3]; Raspberry, day 6): These changes are not seen in the Exp group
- discoloration, foul smell, larvae and flies ([3]; Red meat, Chicken and Salmon, day 4): Meat discolored in the Exp group on day 4 but there was no evidence of foul smell or flies
- growth of yeast and bacteria, loss of consistency, discoloration ([3]; Sprout, day 4): These changes are not seen in the Exp group
- yeast growth, loss of consistency, discoloration ([3]; Strawberry, day 4): These changes are not seen in the Exp group
- shelf life prolonged by (freshly cut Kiwi fruits; 0.25 mmol/L-1.75 mmol/L NaHS, control lost edibility on day 4): 2 to 3 days
- shelf life prolonged by (freshly cut Kiwi fruits; 1.5 mmol/L NaHS (best)): 2 days
- day until which micro-organisms did not appear (freshly cut Kiwi fruits; 1.5 mmol/L NaHS, control rot rate 100% in 7 days): 10 days
